This note sets out measurements from patent US9676798B2, “Cationic oligonucleotides, automated methods for preparing same and their uses” (CENTRE NATIONAL DE LA RECHERCHE SCIENTIFIQUE (CNRS), priority 2005, dated 2017).

The subject of this data set is Hela cells. Nature of the data set: Penetration of cationic oligonucleotides into cells (fluorescence microscopy, propidium iodide). It counts as cell-based. To be noted: for Cell fluorescence after incubation (penetration into cells): 2 μM, four hours, serum-free MEM, no carrier. How it is done:
Hela cells, grown in 10% (v/v) fetal calf serum containing MEM medium, were plated at 50-60×10^3 cells/well into 4-well chambered borosilicate Lab-Tek dishes one day prior to the experiment. Complete medium was replaced by 0.5 ml serum-free MEM medium. A 5′-cationic fluorescein-conjugated oligonucleotide F—S18N19 (where N19 is TCGAAGTACTCAGCGTAAG (SEQ ID NO:7)) formulation was prepared in sterile PBS. It was added to the cells to a final concentration of 2 μM. Four hours later, the medium was replaced by 1 ml of fresh serum-containing medium. A first picture was taken with a Zeiss axiovert 25 fluorescence microscope, equipped with a FITC filter (FIG. 14A, left). […] After 24 h, the medium was replaced with 1 ml of phenol red-free MEM medium. Propidium iodide (1 mM in water) was added to a final concentration of 10 μM.

For “F—S18N19: 5′-cationic fluorescein-conjugated oligonucleotide, N19 is TCGAAGTACTCAGCGTAAG, 18 spermine residues (5' fluorescein and 18 spermine residues attached, backbone chemistry not given here)”, the “Cell fluorescence after incubation (penetration into cells)” value is given as “All cells became fluorescent”. Also, the “Propidium iodide exclusion and retained fluorescence” value (after 24 h, propidium iodide 10 μM) is given as “majority of propidiumless healthy cells that were still fluorescent”. For the substance “F—N19: control fluorescein oligonucleotide without spermine, N19 is TCGAAGTACTCAGCGTAAG (5' fluorescein conjugate, no spermine, further chemistry not given here) [reference compound]”, the “Cell fluorescence after incubation (penetration into cells)” value is reported as “no fluorescence”.
